Organism: Rattus norvegicus
Assay: Open TG-GATES - Regimen: Single
Format: toxicity, organism-based, Sprague-Dawley
Parameters: regimen Single, gender Male, age 6 weeks
Conditions: in vivo, po, 1000 mg/kg, route gavage, dose level High; for APTT / Bas / Eos / Fbg / Hb / Ht / Lym / MCH / MCHC / MCV / Mono / Neu / PT / Plat / RBC / Ret / WBC: tissue Blood; for KIDNEY_L / KIDNEY_R / KIDNEY_TOTAL: tissue Kidney; for LIVER: tissue Liver

**Q.** How did the TERMINAL_BW (3 h) turn out when `COc1cc([C@@H]2c3cc4c(cc3[C@@H](O[C@@H]3O[C@@H]5CO[C@@H](C)O[C@H]5[C@H](O)[C@H]3O)[C@H]3COC(=O)[C@H]23)OCO4)cc(OC)c1O` [ETOPOSIDE] was run?
**A.** The TERMINAL_BW was 199.8 g.

**Q.** What about the APTT (3 h) of the same molecule?
**A.** Its APTT is 16.9 s.

**Q.** And the Bas (3 h)?
**A.** The Bas was 0%.

**Q.** And the Eos (3 h)?
**A.** The Eos was 1%.

**Q.** What about the Fbg (3 h) of the same molecule?
**A.** The Fbg was 194.6 mg/dL.

**Q.** And the Hb (3 h)?
**A.** The Hb was 13.4 g/dL.

**Q.** And the Ht (3 h)?
**A.** The Ht was 39.9%.

**Q.** What about the Lym (3 h) of the same molecule?
**A.** Its Lym is 75.2%.

**Q.** And the MCH (3 h)?
**A.** Its MCH is 22.5 pg.

**Q.** What about the MCHC (3 h) of the same molecule?
**A.** Its MCHC is 33.7%.

**Q.** And the MCV (3 h)?
**A.** The MCV was 66.6 fL.

**Q.** And the Mono (3 h)?
**A.** The Mono was 7.6%.

**Q.** And the Neu (3 h)?
**A.** Its Neu is 16.2%.

**Q.** What about the PT (3 h) of the same molecule?
**A.** Its PT is 12.1 s.

**Q.** What about the Plat (3 h) of the same molecule?
**A.** The Plat was 113.8 x10_4/uL.

**Q.** And the RBC (3 h)?
**A.** Its RBC is 599 x10_4/ul.

**Q.** And the Ret (3 h)?
**A.** The Ret was 9.6%.

**Q.** What about the WBC (3 h) of the same molecule?
**A.** The WBC was 81.2 x10_2/uL.

**Q.** What about the KIDNEY_L (3 h) of the same molecule?
**A.** The KIDNEY_L was 0.9 g.

**Q.** And the KIDNEY_R (3 h)?
**A.** Its KIDNEY_R is 0.9 g.

**Q.** And the KIDNEY_TOTAL (3 h)?
**A.** The KIDNEY_TOTAL was 1.8 g.

**Q.** And the LIVER (3 h)?
**A.** The LIVER was 9.6 g.

**Q.** And the ALP (3 h, tissue Plasma)?
**A.** The ALP was 906.2 IU/L.

**Q.** And the ALT (3 h, tissue Plasma)?
**A.** The ALT was 35.8 IU/L.

**Q.** And the AST (3 h, tissue Plasma)?
**A.** Its AST is 68 IU/L.

**Q.** What about the BUN (3 h, tissue Plasma) of the same molecule?
**A.** The BUN was 12.4 mg/dL.

**Q.** And the CRE (3 h, tissue Plasma)?
**A.** Its CRE is 0.4 mg/dL.

**Q.** And the Ca (3 h, tissue Plasma)?
**A.** The Ca was 10.5 mg/dL.

**Q.** What about the Cl (3 h, tissue Plasma) of the same molecule?
**A.** The Cl was 104 meq/L.

**Q.** And the DBIL (3 h, tissue Plasma)?
**A.** The DBIL was 0.026 mg/dL.

**Q.** And the GLC (3 h, tissue Plasma)?
**A.** Its GLC is 186.8 mg/dL.

**Q.** And the IP (3 h, tissue Plasma)?
**A.** The IP was 9.8 mg/dL.

**Q.** What about the K (3 h, tissue Plasma) of the same molecule?
**A.** The K was 4.5 meq/L.

**Q.** What about the LDH (3 h, tissue Plasma) of the same molecule?
**A.** The LDH was 112.4 IU/L.

**Q.** What about the Na (3 h, tissue Plasma) of the same molecule?
**A.** Its Na is 141 meq/L.

**Q.** What about the PL (3 h, tissue Plasma) of the same molecule?
**A.** The PL was 132 mg/dL.

**Q.** And the RALB (3 h, tissue Plasma)?
**A.** Its RALB is 3.3 g/dL.

**Q.** What about the TBIL (3 h, tissue Plasma) of the same molecule?
**A.** The TBIL was 0.3 mg/dL.

**Q.** What about the TC (3 h, tissue Plasma) of the same molecule?
**A.** The TC was 71.2 mg/dL.

**Q.** What about the TG (3 h, tissue Plasma) of the same molecule?
**A.** Its TG is 39.4 mg/dL.

**Q.** What about the TP (3 h, tissue Plasma) of the same molecule?
**A.** Its TP is 5.2 g/dL.

**Q.** What about the gamma-GTP (3 h, tissue Plasma) of the same molecule?
**A.** The gamma-GTP was 2 IU/L.

**Q.** What about the TERMINAL_BW (6 h) of the same molecule?
**A.** Its TERMINAL_BW is 200.5 g.

**Q.** What about the APTT (6 h) of the same molecule?
**A.** Its APTT is 16.7 s.

**Q.** What about the Bas (6 h) of the same molecule?
**A.** Its Bas is 0%.

**Q.** What about the Eos (6 h) of the same molecule?
**A.** Its Eos is 0.6%.

**Q.** What about the Fbg (6 h) of the same molecule?
**A.** Its Fbg is 194.4 mg/dL.

**Q.** And the Hb (6 h)?
**A.** The Hb was 13.4 g/dL.

**Q.** And the Ht (6 h)?
**A.** Its Ht is 39.7%.

**Q.** What about the Lym (6 h) of the same molecule?
**A.** Its Lym is 74.4%.

**Q.** What about the MCH (6 h) of the same molecule?
**A.** Its MCH is 22.1 pg.

**Q.** What about the MCHC (6 h) of the same molecule?
**A.** The MCHC was 33.8%.

**Q.** And the MCV (6 h)?
**A.** The MCV was 65.4 fL.

**Q.** What about the Mono (6 h) of the same molecule?
**A.** Its Mono is 10.6%.

**Q.** And the Neu (6 h)?
**A.** The Neu was 14.6%.

**Q.** And the PT (6 h)?
**A.** The PT was 11.9 s.

**Q.** And the Plat (6 h)?
**A.** The Plat was 114.8 x10_4/uL.

**Q.** What about the RBC (6 h) of the same molecule?
**A.** The RBC was 606.4 x10_4/ul.

**Q.** What about the Ret (6 h) of the same molecule?
**A.** The Ret was 11.1%.

**Q.** What about the WBC (6 h) of the same molecule?
**A.** The WBC was 76.4 x10_2/uL.

**Q.** What about the KIDNEY_L (6 h) of the same molecule?
**A.** The KIDNEY_L was 0.9 g.

**Q.** What about the KIDNEY_R (6 h) of the same molecule?
**A.** The KIDNEY_R was 0.9 g.

**Q.** What about the KIDNEY_TOTAL (6 h) of the same molecule?
**A.** Its KIDNEY_TOTAL is 1.8 g.

**Q.** And the LIVER (6 h)?
**A.** The LIVER was 8.9 g.

**Q.** What about the ALP (6 h, tissue Plasma) of the same molecule?
**A.** The ALP was 782.6 IU/L.

**Q.** And the ALT (6 h, tissue Plasma)?
**A.** The ALT was 31.6 IU/L.

**Q.** And the AST (6 h, tissue Plasma)?
**A.** The AST was 65.8 IU/L.

**Q.** What about the BUN (6 h, tissue Plasma) of the same molecule?
**A.** Its BUN is 11 mg/dL.

**Q.** What about the CRE (6 h, tissue Plasma) of the same molecule?
**A.** The CRE was 0.6 mg/dL.

**Q.** What about the Ca (6 h, tissue Plasma) of the same molecule?
**A.** Its Ca is 10.4 mg/dL.

**Q.** What about the Cl (6 h, tissue Plasma) of the same molecule?
**A.** The Cl was 104 meq/L.

**Q.** And the DBIL (6 h, tissue Plasma)?
**A.** Its DBIL is 0.006 mg/dL.

**Q.** What about the GLC (6 h, tissue Plasma) of the same molecule?
**A.** The GLC was 193.6 mg/dL.

**Q.** What about the IP (6 h, tissue Plasma) of the same molecule?
**A.** The IP was 10.5 mg/dL.

**Q.** And the K (6 h, tissue Plasma)?
**A.** The K was 4.8 meq/L.

**Q.** And the LDH (6 h, tissue Plasma)?
**A.** The LDH was 105.4 IU/L.

**Q.** And the Na (6 h, tissue Plasma)?
**A.** The Na was 140 meq/L.

**Q.** And the PL (6 h, tissue Plasma)?
**A.** The PL was 140.2 mg/dL.

**Q.** What about the RALB (6 h, tissue Plasma) of the same molecule?
**A.** Its RALB is 3.3 g/dL.

**Q.** What about the TBIL (6 h, tissue Plasma) of the same molecule?
**A.** Its TBIL is 0.3 mg/dL.

**Q.** And the TC (6 h, tissue Plasma)?
**A.** Its TC is 82.8 mg/dL.

**Q.** What about the TG (6 h, tissue Plasma) of the same molecule?
**A.** The TG was 39 mg/dL.

**Q.** And the TP (6 h, tissue Plasma)?
**A.** The TP was 5.2 g/dL.

Source: ChEMBL document CHEMBL3885861, “Open TG-GATES”
